23 compounds from patent publication US20240368078A1, “ARYL HETEROCYCLIC COMPOUNDS AS Kv1.3 POTASSIUM SHAKER CHANNEL BLOCKERS” (D.E. SHAW RESEARCH, LLC, priority 2021, published 2024) can be followed below.

The structures appear in SMILES notation.

The target in series [1] is hERG channel (Homo sapiens (Human), UniProt Q12809). Kind of series: hERG electrophysiology, automated whole-cell patch clamp in CHO-K1 cells stably expressing hERG. Type of series: cell-based. The note with it: Patchliner patch clamp. On the procedure: Example 22. Evaluation of hERG Activities
Sequence of hERG channel (Q12809 whole entry): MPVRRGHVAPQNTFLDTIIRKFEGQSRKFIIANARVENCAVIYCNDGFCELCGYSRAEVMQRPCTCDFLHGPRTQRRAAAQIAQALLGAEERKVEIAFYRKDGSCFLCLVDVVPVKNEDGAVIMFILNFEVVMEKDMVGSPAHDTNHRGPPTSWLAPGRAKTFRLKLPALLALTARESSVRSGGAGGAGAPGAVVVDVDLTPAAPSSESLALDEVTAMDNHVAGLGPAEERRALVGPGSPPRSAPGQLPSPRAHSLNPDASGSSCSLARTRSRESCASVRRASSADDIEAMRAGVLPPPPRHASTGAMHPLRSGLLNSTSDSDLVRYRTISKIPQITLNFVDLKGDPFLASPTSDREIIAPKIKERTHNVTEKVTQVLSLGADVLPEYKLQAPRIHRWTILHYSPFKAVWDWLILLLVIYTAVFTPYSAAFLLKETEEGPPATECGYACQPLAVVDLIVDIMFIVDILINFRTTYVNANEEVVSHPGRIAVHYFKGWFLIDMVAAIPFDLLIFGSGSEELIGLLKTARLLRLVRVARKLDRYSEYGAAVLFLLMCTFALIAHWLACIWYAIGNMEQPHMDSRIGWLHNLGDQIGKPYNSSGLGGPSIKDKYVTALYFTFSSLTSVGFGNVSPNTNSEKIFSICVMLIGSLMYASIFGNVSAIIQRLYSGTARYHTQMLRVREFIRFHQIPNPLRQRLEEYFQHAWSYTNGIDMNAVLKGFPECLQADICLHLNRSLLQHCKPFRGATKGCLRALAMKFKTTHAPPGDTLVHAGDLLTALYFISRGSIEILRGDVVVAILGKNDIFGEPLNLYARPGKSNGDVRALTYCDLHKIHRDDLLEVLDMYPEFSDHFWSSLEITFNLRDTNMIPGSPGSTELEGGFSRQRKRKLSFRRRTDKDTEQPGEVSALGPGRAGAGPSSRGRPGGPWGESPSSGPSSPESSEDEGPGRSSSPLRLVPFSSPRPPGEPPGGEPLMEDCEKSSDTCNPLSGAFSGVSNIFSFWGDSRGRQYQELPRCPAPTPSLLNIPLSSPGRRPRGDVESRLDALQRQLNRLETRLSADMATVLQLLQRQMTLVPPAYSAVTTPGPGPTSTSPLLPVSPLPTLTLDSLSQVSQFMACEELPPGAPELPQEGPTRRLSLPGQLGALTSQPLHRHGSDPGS
This assay is used to evaluate the disclosed compounds's inhibition activities against the hERG channel.
This assay is used to evaluate the disclosed compounds' inhibition activities against the hERG channel.
CHO-K1 cells stably expressing hERG were grown in Ham's F-12 Medium with glutamine containing 10% heat-inactivated FBS, 1% penicillin/streptomycin, hygromycin (100 μg/ml) and G418 (100 μg/ml). Cells were grown in culture flasks at 37° C. in a 5% CO2— humidified incubator.
The cells were bathed in an extracellular solution containing 140 mM NaCl, 4 mM KCl, 2 mM CaCl2), 1 mM MgCl2, 5 mM Glucose, 10 mM HEPES; pH adjusted to 7.4 with NaOH; 295-305 mOsm. The internal solution contained 50 mM KCl, 10 mM NaCl, 60 mM KF, 20 mM EGTA, 10 mM HEPES; pH adjusted to 7.2 with KOH; 285 mOsm. All compounds were dissolved in DMSO at 30 mM. Compound stock solutions were freshly diluted with external solution to concentrations of 30 nM, 100 nM, 300 nM, 1 μM, 3 μM, 10 μM, 30 μM and 100 μM. The highest content of DMSO (0.3%) was present in 100 μM.
The voltage protocol (see Table B) was designed to simulate voltage changes during a cardiac action potential with a 300 ms depolarization to +20 mV (analogous to the plateau phase of the cardiac action potential), a repolarization for 300 ms to −50 mV (inducing a tail current) and a final step to the holding potential of −80 mV. The pulse frequency was 0.3 Hz. Control (compound-free) and compound pulse trains for each compound concentration applied contained 70 pulses.
(§1) Whole-cell current recordings and compound application were enabled by means of an automated patch clamp platform Patchliner (Nanion). EPC 10 patch clamp amplifier (HEKA) along with Patchmaster software (HEKA Elektronik Dr. Schulze GmbH) was used for data acquisition. Data were sampled at 10 kHz without filtering. Increasing compound concentrations were applied consecutively to the same cell without washouts in between.
AUC and PEAK values were obtained with Patchmaster (HEKA Elektronik Dr. Schulze GmbH). To determine IC50 the last single pulse in the pulse train corresponding to a given compound concentration was used. Obtained AUC and PEAK values in the presence of compound were normalized to control values in the absence of compound. Using Origin (OridinLab), IC50 was derived from data fit to Hill equation: Icompound/Icontrol=(100−A)/(1+([compound]/IC50)nH)+A, where IC50 is the concentration at which current inhibition is half-maximal, [compound] is the applied compound concentration, A is the fraction of current that is not blocked and nH is the Hill coefficient.
(hERG is a cardiac potassium channel; its block is linked to QT prolongation.)

For series [2], the target named is Kv1.3 potassium channel (Homo sapiens (Human), UniProt P22001). Briefly: Kv1.3 potassium channel blocker activity, automated whole-cell patch clamp in CHO-K1 cells stably expressing Kv1.3. Type of series: cell-based. Particulars: Patchliner patch clamp. As to the method: Example 21. Evaluation of Kv1.3 Potassium Channel Blocker Activities
Sequence of Kv1.3 potassium channel (P22001 whole entry): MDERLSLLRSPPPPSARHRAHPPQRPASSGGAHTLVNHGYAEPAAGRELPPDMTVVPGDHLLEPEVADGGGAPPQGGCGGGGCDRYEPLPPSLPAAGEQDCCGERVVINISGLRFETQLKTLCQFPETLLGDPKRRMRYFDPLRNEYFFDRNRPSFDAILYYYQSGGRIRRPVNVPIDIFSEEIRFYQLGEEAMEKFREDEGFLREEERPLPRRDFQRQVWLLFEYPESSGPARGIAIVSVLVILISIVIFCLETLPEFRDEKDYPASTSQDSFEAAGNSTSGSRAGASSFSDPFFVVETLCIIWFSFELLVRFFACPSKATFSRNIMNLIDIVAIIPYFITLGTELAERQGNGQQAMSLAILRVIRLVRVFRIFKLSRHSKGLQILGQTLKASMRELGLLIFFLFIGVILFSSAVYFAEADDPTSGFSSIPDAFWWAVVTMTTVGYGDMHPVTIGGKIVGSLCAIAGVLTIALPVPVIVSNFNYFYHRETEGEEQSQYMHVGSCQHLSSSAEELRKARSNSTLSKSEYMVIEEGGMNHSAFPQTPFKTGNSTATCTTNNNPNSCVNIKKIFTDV
This assay is used to evaluate the disclosed compounds' activities as Kv1.3 potassium channel blockers.
CHO-K1 cells stably expressing Kv1.3 were grown in DMEM containing 10% heat-inactivated FBS, 1 mM sodium pyruvate, 2 mM L-glutamine, and G418 (500 μg/ml). Cells were grown in culture flasks at 37° C. in a 5% C02-humidified incubator.
The cells were bathed in an extracellular solution containing 140 mM NaCl, 4 mM KCl, 2 mM CaCl2), 1 mM MgCl2, 5 mM glucose, 10 mM HEPES; pH adjusted to 7.4 with NaOH; 295-305 mOsm. The internal solution contained 50 mM KCl, 10 mM NaCl, 60 mM KF, 20 mM EGTA, 10 mM HEPES; pH adjusted to 7.2 with KOH; 285 mOsm. All compounds were dissolved in DMSO at 30 mM. Compound stock solutions were freshly diluted with external solution to concentrations of 30 nM, 100 nM, 300 nM, 1 μM, 3 μM, 10 μM, 30 μM and 100 μM. The highest content of DMSO (0.3%) was present in 100 μM.
The currents were evoked by applying 100 ms depolarizing pulses from −90 mV (holding potential) to +40 mV were applied with 0.1 Hz frequency. Control (compound-free) and compound pulse trains for each compound concentration applied contained 20 pulses. 10-second breaks were used between pulse trains (see Table A below).
as §1, with “(Nanion Technologies GmbH).” for “(Nanion).”, “(HEKA Elektronik Dr. Schulze GmbH)” for “(HEKA)”, “filtering. Passive leak currents were subtracted online using a P/4 procedure (HEKA Elektronik Dr. Schulze GmbH).” for “filtering.”, “between. Total compound incubation time before the next pulse train was not longer than 10 seconds. Peak current inhibition was observed during compound equilibration.” for “between.”
AUC and peak values were obtained with Patchmaster (HEKA Elektronik Dr. Schulze GmbH). To determine IC50, the last single pulse in the pulse train corresponding to a given compound concentration was used. Obtained AUC and peak values in the presence of compound were normalized to control values in the absence of compound. Using Origin (OridinLab), IC50 was derived from data fit to Hill equation: Icompound/Icontrol=(100-A)/(1+([compound]/IC50)nH)+A, where IC50 value is the concentration at which current inhibition is half-maximal, [compound] is the applied compound concentration, A is the fraction of current that is not blocked and nH is the Hill coefficient.

For orientation: IC50 means the concentration that gives 50% inhibition. High values mean lower potency, low ones higher potency. As for `O=C(C[C@H]1CN[C@@H](c2c(O)ccc(Cl)c2Cl)C1)N1CC(O)(CO)C1` [Compound 43, 2-((3S,5R)-5-(2,3-dichloro-6-hydroxyphenyl)pyrrolidin-3-yl)-1-(3-hydroxy-3-(hydroxymethyl)azetidin-1-yl)ethan-1-one], the figures for the IC50 in series [1] and in series [2] were over 100 µM and under 0.1 µM, respectively.

Regarding `CC1(O)CN(C(=O)C[C@H]2CN[C@@H](c3c(O)ccc(Cl)c3Cl)C2)C1` [Compound 61, 2-((3S,5R)-5-(2,3-dichloro-6-hydroxyphenyl)pyrrolidin-3-yl)-1-(3-hydroxy-3-methylazetidin-1-yl)ethan-1-one], the concentration for half-maximal inhibition (IC50) in series [1] was over 100 µM; in series [2], under 0.1 µM.

Turning to `COC[C@@H](C(N)=O)[C@H]1CN[C@@H](c2c(O)ccc(Cl)c2Cl)C1` (single isomer, unassigned) [Compound 75], the IC50 in series [1] is over 100 µM; in series [2] it was under 1 µM.

As for `CC[C@H](C(N)=O)[C@H]1CN[C@@H](c2c(O)ccc(Cl)c2Cl)C1` (single isomer, unassigned) [Compound 47], the values for the IC50 in series [1] and in series [2] were 100 µM and under 0.1 µM, respectively.

For `CNC(=O)C[C@H]1CN[C@@H](c2c(O)ccc(Cl)c2Cl)C1` [Compound 42, 2-((3S,5R)-5-(2,3-dichloro-6-hydroxyphenyl)pyrrolidin-3-yl)-N-methylacetamide], the concentration for half-maximal inhibition (IC50) in series [1] was over 30 µM; in series [2], under 0.1 µM.

Take `NC(=O)CC1CN[C@@H](c2cc(Cl)c(Cl)cc2O)C1` (stereo partly drawn) [Compound 38, 2-((5R)-5-(4,5-dichloro-2-hydroxyphenyl)pyrrolidin-3-yl)acetamide]: the figures for the IC50 in series [1] and in series [2] were over 10 µM and under 1 µM, respectively.

For `COC[C@H](C(N)=O)[C@H]1CN[C@@H](c2c(O)ccc(Cl)c2Cl)C1` (single isomer, unassigned) [Compound 74], the half-maximal inhibitory concentration (IC50) was over 100 µM in series [1] and under 1 µM in series [2].

Consider `O=C(CC1CN[C@@H](c2c(O)ccc(Cl)c2Cl)C1)N1CC(O)(CO)C1` (stereo partly drawn) [Compound 33, 2-((5R)-5-(2,3-dichloro-6-hydroxyphenyl)pyrrolidin-3-yl)-1-(3-hydroxy-3-(hydroxymethyl)azetidin-1-yl)ethan-1-one], for which the results for the concentration for half-maximal inhibition (IC50) in series [1] and in series [2] were over 100 µM and under 0.1 µM, respectively.

Take `CNC(=O)CC1CN[C@@H](c2c(O)ccc(Cl)c2Cl)C1` (stereo partly drawn) [Compound 36, 2-((5R)-5-(2,3-dichloro-6-hydroxyphenyl)pyrrolidin-3-yl)-N-methylacetamide]: the half-inhibitory concentration (IC50) is over 30 µM in series [1] and under 0.1 µM in series [2].

For `CC(C)(C(N)=O)[C@H]1CN[C@@H](c2c(O)ccc(Cl)c2Cl)C1` [Compound 52, 2-[(3S,5R)-5-(2,3-dichloro-6-hydroxyphenyl)pyrrolidin-3-yl]-2-methylpropanamide], the half-inhibitory concentration (IC50) was over 30 µM in series [1] and under 1 µM in series [2].

Turning to `NC(=O)C[C@H]1CN[C@@H](c2c(O)ccc(Cl)c2Cl)C1` [Compound 31, 2-[(3S,5R)-5-(2,3-dichloro-6-hydroxyphenyl)pyrrolidin-3-yl]acetamide], the concentration for half-maximal inhibition (IC50) in series [1] is over 100 µM; in series [2], under 1 µM.

Regarding `C[C@H](O)CNC(=O)C[C@H]1CN[C@@H](c2c(O)ccc(Cl)c2Cl)C1` [Compound 65, 2-((3S,5R)-5-(2,3-dichloro-6-hydroxyphenyl)pyrrolidin-3-yl)-N-((S)-2-hydroxypropyl)acetamide], the concentration for half-maximal inhibition (IC50) was over 100 µM in series [1] and under 0.1 µM in series [2].

Regarding `O=C(C[C@H]1CN[C@@H](c2c(O)ccc(Cl)c2Cl)C1)N1CCC[C@@H](O)C1` [Compound 58, 2-((3S,5R)-5-(2,3-dichloro-6-hydroxyphenyl)pyrrolidin-3-yl)-1-((R)-3-hydroxypipeiridn-1-yl)ethan-1-one], the values for the IC50 in series [1] and in series [2] were over 30 µM and under 1 µM, respectively.

Take `NC(=O)C(CO)[C@H]1CN[C@@H](c2c(O)ccc(Cl)c2Cl)C1` (single isomer, unassigned) [Compound 77]: the IC50 is over 100 µM in series [1] and under 0.1 µM in series [2].

For `O=C(CC1CN[C@@H](c2c(O)ccc(Cl)c2Cl)C1)N1CC[C@H](O)C1` (stereo partly drawn) [Compound 40, 2-((5R)-5-(2,3-dichloro-6-hydroxyphenyl)pyrrolidin-3-yl)-1-((S)-3-hydroxypyrrolidin-1-yl)ethan-1-one], the IC50 in series [1] was over 100 µM; in series [2], under 1 µM.

`NC(=O)[C@@H](CO)[C@H]1CN[C@@H](c2c(O)ccc(Cl)c2Cl)C1` (single isomer, unassigned) [Compound 76]: the half-maximal inhibitory concentration (IC50) in series [1] is over 100 µM; in series [2], under 1 µM.

Regarding `O=C(CO)NC[C@@H]1CN[C@@H](c2c(O)ccc(Cl)c2Cl)C1` [Compound 48, N-{[(3S,5R)-5-(2,3-dichloro-6-hydroxyphenyl)pyrrolidin-3-yl]methyl}-2-hydroxyacetamide], the 50% inhibitory concentration (IC50) in series [1] is over 30 µM; in series [2], under 1 µM.

Take `O=C(C[C@H]1CN[C@@H](c2c(O)ccc(Cl)c2Cl)C1)N1CC[C@H]1CO` [Compound 68, 2-((3S,5R)-5-(2,3-dichloro-6-hydroxyphenyl)pyrrolidin-3-yl)-1-((S)-2-(hydroxymethyl)azetidin-1-yl)ethan-1-one]: the IC50 in series [1] was over 100 µM; in series [2], under 1 µM.

Consider `NC(=O)C[C@@H]1CC[C@H](c2c(O)ccc(Cl)c2Cl)N1` [Compound 53, 2-((2S,5R)-5-(2,3-dichloro-6-hydroxyphenyl)pyrrolidin-2-yl)acetamide], for which the IC50 in series [1] was over 100 µM; in series [2] it was under 1 µM.

For `C[C@H](C(N)=O)[C@H]1CN[C@@H](c2c(O)ccc(Cl)c2Cl)C1` (single isomer, unassigned) [Compound 45], the figures for the IC50 in series [1] and in series [2] were over 100 µM and under 0.1 µM, respectively.

Take `CC[C@@H](C(N)=O)[C@H]1CN[C@@H](c2c(O)ccc(Cl)c2Cl)C1` (single isomer, unassigned) [Compound 46]: the 50% inhibitory concentration (IC50) is over 100 µM in series [1] and under 1 µM in series [2].

In the case of `Oc1ccc(Cl)c(Cl)c1[C@H]1C[C@@H](Cc2cc[nH]n2)CN1` [Compound 55, 2-((2R,4S)-4-((1H-pyrazol-3-yl)methyl)pyrrolidin-2-yl)-3,4-dichlorophenol], the IC50 in series [1] was over 10 µM; in series [2], under 1 µM.

Take `C[C@H](CO)NC(=O)C[C@H]1CN[C@@H](c2c(O)ccc(Cl)c2Cl)C1` [Compound 63, 2-((3S,5R)-5-(2,3-dichloro-6-hydroxyphenyl)pyrrolidin-3-yl)-N-((R)-1-hydroxypropan-2-yl)acetamide]: the half-inhibitory concentration (IC50) in series [1] was over 100 µM; in series [2] it was under 0.1 µM.
